Values after ≈ are worked out from the molar mass of the structure shown.
Conditions: for aqueous solubility: pH 6.8

| SMILES | MDR1-MDCK efflux ratio | fraction unbound, human plasma | fraction unbound, rat plasma | intrinsic clearance, human liver microsomes | intrinsic clearance, rat liver microsomes | aqueous solubility |
| --- | --- | --- | --- | --- | --- | --- |
| CC1(C)CC(=O)C2=C(C1)NC(=O)CC2c1ccc(Br)cc1 (configuration not stated) | 3.38 | 0.144 | 0.088 | 59.6 mL/min/kg | 247 mL/min/kg |  |
| O=C(NC[C@H]1COCc2nc3ccccc3n21)c1ccncc1 | 23.9 |  |  | 18.9 mL/min/kg | 131 mL/min/kg | 52.1 µg/mL (≈ 169 µM) |
| COc1cc(CCNC(=O)c2nc3cccc(C)n3c2F)cc(OC)c1 |  |  |  | 81.6 mL/min/kg | 821 mL/min/kg | 39.5 µg/mL (≈ 111 µM) |
| CCCCOc1nc(N)c2c(n1)N(Cc1cccc(CN3CCCC3)c1)CC(=O)N2 | 5.49 |  |  | 113 mL/min/kg | 1870 mL/min/kg |  |
| Cc1nc2cc(NC(=O)Cc3c(C)nc4ccccc4c3C)ccc2o1 | 4.57 |  |  | 8.56 mL/min/kg | 254 mL/min/kg | 23.1 µg/mL (≈ 66.9 µM) |
| COc1cccc(OC)c1-c1ccc(OCCN2CCCC2)cc1 | 1.4 |  |  | ≤ 4.74 mL/min/kg | 2290 mL/min/kg |  |
| c1ccc(-n2ncc3c(-n4ccnc4)ncnc32)cc1 | 0.618 |  |  | 16 mL/min/kg | 376 mL/min/kg | 4.97 µg/mL (≈ 18.9 µM) |
| N#Cc1cccc(CN2CCOC[C@H](Oc3ccccc3)C2)c1 | 0.507 |  |  | 128 mL/min/kg | 2020 mL/min/kg | 52.9 µg/mL (≈ 171 µM) |
| COCc1ccccc1COC(=O)c1ccc(C)nc1 | 0.608 |  |  | 444 mL/min/kg | 2220 mL/min/kg |  |
| O=C(O)Cc1ccc(Oc2ccncc2)cc1 | 1.2 |  |  | ≤ 4.74 mL/min/kg | ≤ 10.7 mL/min/kg |  |
| CN(CC1CCC1)C(=O)C1CCN(c2ccc3nncn3n2)CC1 | 11.6 |  |  | 7.72 mL/min/kg | 126 mL/min/kg |  |
| CN(Cc1ccc(-c2ccc(Br)cc2)o1)C(=O)c1cnn(C)c1 |  |  |  | 10.5 mL/min/kg | 134 mL/min/kg | 5.53 µg/mL (≈ 14.8 µM) |
| Cc1csc(NC(=O)c2cccc(C)c2C)n1 |  |  |  | 173 mL/min/kg | 916 mL/min/kg | 11.3 µg/mL (≈ 45.8 µM) |
| COC(=O)c1cccc2c1CCCN2C(=O)c1ccc(F)cc1F | 0.708 |  |  | 1150 mL/min/kg | 2000 mL/min/kg |  |
| NCCOc1cccc(CC(=O)N2CCCN(C(=O)C3CCC3)CC2)c1 | 5.51 |  |  | ≤ 4.74 mL/min/kg | ≤ 10.7 mL/min/kg |  |
| CC(C)(C)C(=O)N1CCC(NS(C)(=O)=O)CC1 | 1.89 |  |  | ≤ 4.74 mL/min/kg | ≤ 10.7 mL/min/kg | 56.9 µg/mL (≈ 217 µM) |
| COc1ccc2nc(CN3CCC(O)(c4ccc(C)cc4)CC3)ccc2c1 | 0.485 |  |  | 44.5 mL/min/kg | 631 mL/min/kg | 29.7 µg/mL (≈ 81.9 µM) |
| CCS(=O)(=O)Cc1ccn(-c2cccc(F)c2)n1 | 0.632 |  |  | ≤ 4.74 mL/min/kg | 38.7 mL/min/kg | 49.2 µg/mL (≈ 183 µM) |
| CC(C)n1cc(CN2CCC(c3nc(N(C)C)no3)CC2)cn1 | 1.79 |  |  | ≤ 4.74 mL/min/kg | 179 mL/min/kg |  |
| CC(C)(C)c1ccc(C2=NC3(CCNCC3)NC2=O)cc1 | 33.8 |  |  | 6.52 mL/min/kg | 59.6 mL/min/kg | 45 µg/mL (≈ 158 µM) |
| Cc1cccc(NC(=O)CN2C(=O)N(C)C3(CCCCC3)C2=O)c1C |  |  |  | 506 mL/min/kg | 2640 mL/min/kg | 59.8 µg/mL (≈ 174 µM) |
| O=C(Nc1cn(CCOCC(F)(F)F)nc1-c1ccccn1)c1coc(-c2cn[nH]c2)n1 | 6.03 |  |  | 51.7 mL/min/kg | 518 mL/min/kg |  |
| Nc1nc(-c2ccccc2)nc2nc(C3CCCN(CC(=O)N4CCCC4)C3)ccc12 (configuration not stated) | 12.5 |  |  | 5.81 mL/min/kg | 186 mL/min/kg | 68.6 µg/mL (≈ 165 µM) |
| O[C@@H]1CO[C@H]2C[C@@H]1Nc1c(-c3ccccc3)cccc12 | 0.599 |  |  | 15 mL/min/kg | 367 mL/min/kg | 17 µg/mL (≈ 63.6 µM) |
| Cc1cccc2c(=O)n(CCC(=O)Nc3cc(C4CC4)n[nH]3)cnc12 |  |  |  |  |  | 8.26 µg/mL (≈ 24.5 µM) |
| COc1cc(CN2CCCNCC2)cc2c1OCO2 | 8.38 |  |  | 5.17 mL/min/kg | 72.9 mL/min/kg |  |
| Cc1cc(C)n2ncc(C(=O)Nc3cccc(C(=O)O)c3)c2n1 | 0.709 |  |  | ≤ 4.74 mL/min/kg | ≤ 10.7 mL/min/kg | 17.6 µg/mL (≈ 56.7 µM) |

— the Biogen ADME set (Fang et al. 2023)
